Tests used:
[1] = biological target: T1, rat central A1 adenosinergic receptors (Rattus norvegicus, UniProt P25099); test: Binding to adenosine A1 receptors ([3H] PIA displacement); settings: [3H] PIA 2.5 nM, n=3; for inhibition at 10 µM: 1E-5M, read-out: % displacement of the labeled ligand, A1, 1E-5M; for inhibition at 0.1 µM: 1E-7M, read-out: % displacement of the labeled ligand, A1, 1E-7M
T1 construct: After the animal has been sacrificed by decapitation, the brain is quickly removed and washed in cold isotonic solution; from tissue; host or cells: rat brain, membrane preparation from the two hemispheres
T1 sequence (P25099 1-326): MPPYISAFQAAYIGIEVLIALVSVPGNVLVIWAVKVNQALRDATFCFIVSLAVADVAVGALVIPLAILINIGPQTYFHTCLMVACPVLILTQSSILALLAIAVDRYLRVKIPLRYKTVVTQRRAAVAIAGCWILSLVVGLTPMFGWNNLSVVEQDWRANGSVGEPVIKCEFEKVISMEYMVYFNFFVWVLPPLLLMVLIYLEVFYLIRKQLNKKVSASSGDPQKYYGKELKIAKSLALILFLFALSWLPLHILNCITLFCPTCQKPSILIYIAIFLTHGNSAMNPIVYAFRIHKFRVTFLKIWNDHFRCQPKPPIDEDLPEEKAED
Procedure: (§1) The affinity of the products of the Examples for the rat central A1 and A2 adenosinergic receptors is determined by the competitive technique using a radioactive ligand specifically bound either to the A1 receptors ([^3 H] PIA) or to the A2 receptors ([^3 H] NECA).
After the animal has been sacrificed by decapitation, the brain is quickly removed and washed in cold isotonic solution. The two hemispheres are separated and weighed and each of them is introduced into a polyallomer tube containing 25 volumes of cold homogenization buffer. Homogenization is effected using an Ultra-Turrax for 30 seconds (3 times 10 seconds with 10-second intervals, 70% of the maximum speed). The ground material obtained is centrifuged at 1000 g (≈3000 rpm) for 10 minutes at 4° C.
The supernatant is centrifuged again at 48,000 g (≈20,000 rpm) for 20 minutes at 4° C.
When this step is complete, the residue is taken up with 4 volumes of homogenization buffer, resuspended using a Vortex and homogenized with the Ultra-Turrax. Adenosine deaminase is then added at a rate of 1 U/ml, i.e. 1 μl/ml of homogenate, using a 10 μl Hamilton syringe.
After this treatment, the homogenate is shaken for 30 minutes at room temperature and then centrifuged at […] (≈20,000 rpm) for 30 minutes at 4° C.
The residue obtained is resuspended in 10 volumes of homogenization buffer and passed through the Ultra-Turrax for 20 seconds (2 times 10 seconds with a 10-second interval, 70% of the maximum speed).
The homogenate prepared in this way is used for the competitive tests. It is kept at 4° C. if the studies take place the same day, or stored at -20° C. in the form of 10 ml aliquots.
After the homogenate has been thawed at room temperature, it is passed through a Potter mill (6 manual to-and-fro movements, speed 6), diluted to 2/5 in incubation buffer and placed in a water bath thermostated at 4° C., with shaking, until the end of the experiment.
(§2) 50 μl of [^3 H] PIA at 100 nM, i.e. 2.5 nM in the final reaction medium allowing for the 1/40 dilution, and 50 μl of the product of the Example at the concentrations considered (10^-1 M and 10^-7 M) are introduced into the reaction tubes. The reaction is initiated by the addition of 1 ml of homogenate and 900 μl of incubation buffer. The procedure is identical for all the beta-blockers studied.
(§3) The tubes are shaken and incubated in a water bath at 20° C. for 30 minutes. When the incubation is complete, the contents of the tubes are filtered on Whatman GF/B paper. Each tube is washed twice with 2 ml of rinsing buffer and then the filters themselves are rinsed with 3 ml of this same buffer.
The filters are then transferred to counting flasks and 10 ml of liquid scintillator (Ready Solv HP/b, Beckman) are added.
After they have been shaken, the flasks are stored in a refrigerator overnight and the radio-activity is then determined in a liquid scintillation counter.
(§4) 3 tests are performed for each concentration studied. The non-specific binding of the [^3 H] PIA is assessed by measuring the amount of radioactivity retained on the filter in the presence of 10^-5 M phenylisopropyladenosine (PIA). The value of the non-specific binding is systematically subtracted from that of the tests.
(§5) The results are expressed for each product in the form of the percentage displacement (n=3) of the labeled radioligand at concentrations of 10^-5 M and 10^-7 M.

[2] = Phenylbenzoquinone test (analgesic activity); format: in vivo; settings: Mus musculus, 1 h; mice; oral, one hour before phenylbenzoquinone i.p.; 5 minutes observation; read-out: Phenylbenzoquinone test 50% inhibitory dose
Procedure: 2. Phenylbenzoquinone test
The intraperitoneal injection of phenylbenzoquinone causes twisting and stretching movements in mice. Analgesics prevent or reduce this syndrome, which can be considered as the exteriorization of diffuse abdominal pain.
A 0.02% solution of phenylbenzoquinone in water is administered in a volume of 1 ml/100 g.
The products of the Examples are administered orally one hour before the injection of phenylbenzoquinone.
The stretching and twisting movements are counted for each mouse over an observation period of 5 minutes.

[3] = biological target: T2, rat central A2 adenosinergic receptors (Rattus norvegicus, UniProt P30543); test: Binding to adenosine A2 receptors ([3H] NECA displacement); settings: [3H] NECA 4 nM, n=3; for inhibition at 10 µM: 1E-5M, read-out: % displacement of the labeled ligand, A2, 1E-5M; for inhibition at 0.1 µM: 1E-7M, read-out: % displacement of the labeled ligand, A2, 1E-7M
T2 construct: the striatum is removed from each of them (Bruns et al., 1986); from tissue; host or cells: rat striatum, homogenate (membrane preparation)
T2 sequence (P30543 whole entry): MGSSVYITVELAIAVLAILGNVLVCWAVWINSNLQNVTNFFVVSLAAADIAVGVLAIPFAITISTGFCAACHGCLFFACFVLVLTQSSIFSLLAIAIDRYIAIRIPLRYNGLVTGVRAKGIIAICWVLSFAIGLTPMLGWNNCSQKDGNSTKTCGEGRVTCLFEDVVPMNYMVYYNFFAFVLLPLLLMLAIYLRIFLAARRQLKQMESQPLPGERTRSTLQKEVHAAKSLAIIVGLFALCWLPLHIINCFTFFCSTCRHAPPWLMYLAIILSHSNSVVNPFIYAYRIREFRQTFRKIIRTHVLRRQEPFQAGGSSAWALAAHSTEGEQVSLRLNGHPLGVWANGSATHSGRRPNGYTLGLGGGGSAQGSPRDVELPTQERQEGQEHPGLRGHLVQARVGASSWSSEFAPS
Procedure: as §1
Method of studying the A2 receptors Membrane preparation
After decapitation of the animal, the brain is quickly removed and washed in cold isotonic solution. The two hemispheres are separated and the striatum is removed from each of them (Bruns et al., 1986), weighed and introduced into a polyallomer tube containing 10 volumes of cold homogenization buffer. The tissue is homogenized with an Ultra-Turrax for 30 seconds (3 times 10 seconds with 10-second intervals, 70% of the maximum speed). The ground material is centrifuged at 50,000 g (≈20,500 rpm) for 10 minutes at 4° C.
The residue obtained is resuspended in 10 volumes of homogenization buffer using a Vortex and homogenized with the Ultra-Turrax (5 to 10 seconds, 70% of the maximum speed).
Adenosine deaminase is then added at a rate of 1 U/ml, i.e. 1 μl/ml of homogenate, using a 10 μl Hamilton syringe. The homogenate treated in this way is shaken at room temperature for 30 minutes.
When the incubation is complete, the homogenate is centrifuged at 50,000 g (≈20,500 rpm) for 10 minutes at 4° C.
The residue is taken up with 5 volumes of cold homogenization buffer and passed through the Ultra-Turrax (2 times 10 seconds with a 10-second interval, 70% of the maximum speed) and the homogenate prepared in this way is finally frozen at -70° C. Competitive test
After the homogenate has been thawed at room temperature, 15 volumes of incubation buffer are added. The homogenate is shaken on a Vortex, passed through a Potter mill (6 to-and-fro movements, speed 6), diluted to 1/10 in incubation buffer and finally placed in a water bath thermostated at 4° C., with shaking, until the end of the experiment.
as §2, with “NECA” for “PIA”, “160” for “100”, “4” for “2.5”, “(10^-5” for “(10^-1”, “similar” for “identical”, “compounds” for “beta-blockers”
as §3, with “25°” for “20°”, “60” for “30”, “buffer before being transferred to counting flasks.” for “buffer.”
10 ml of liquid scintillator (Ready Solv HP/b, Beckman) are added to all the flasks. These are shaken and stored in a refrigerator overnight. The radioactivity is determined in a liquid scintillation counter.
as §4, with “NECA” for “PIA”, “determined” for “assessed”, “5 μM N-ethylcarboxamidoadenosine (NECA).” for “10^-5 M phenylisopropyladenosine (PIA).”
as §5

[4] = test system: platelet aggregation; settings: as described in Journal of Medicinal Chemistry; cited from earlier work
[5] = as specified in Biochemical Pharmacology; cited from earlier work

| inhibition at 10 µM [1] | inhibition at 0.1 µM [1] | inhibition at 10 µM [3] | inhibition at 0.1 µM [3] | Structure (SMILES) | ED50 [2] | platelet aggregation inhibiting activity [4] | antilipolytic activity [5] |
| --- | --- | --- | --- | --- | --- | --- | --- |
| 93% | 26% | 84% | 9% | Cc1ccc(C)c(Cn2cc(CCNc3ncnc4c3ncn4[C@@H]3O[C@H](C(=O)NC4CC4)[C@@H](O)[C@H]3O)c3ccccc32)c1 [Example 68, β-D-Ribofuranuronamido-N-cyclopropyl-1-deoxy-1-[6-[[2-[1-(2,5-dimethylbenzyl)indol-3-yl]ethyl]amino]-9H-purin-9-yl]] | 2.4 mg/kg | – | – |
| 99% | 91% | 96% | 44% | O=C(NC1CC1)[C@H]1O[C@@H](n2cnc3c(NCCc4cn(CCN5CCCCC5)c5ccccc45)ncnc32)[C@H](O)[C@@H]1O [Example 71 (citrate), β-D-ribofuranuronamido-N-cyclopropyl-1-deoxy-1-[6-[[2-[1-(2-N-piperidinoethyl)indol-3-yl]ethyl]amino]-9H-purin-9-yl]citrate] | 7.3 mg/kg | – | – |
| 100% | 16% | 91% | 17% | COc1ccc2c(c1)c(CCNc1ncnc3c1ncn3[C@@H]1O[C@H](C(=O)NC3CC3)[C@@H](O)[C@H]1O)cn2Cc1cc(C)ccc1C [Example 86, β-D-Ribofuranuronamido-N-cyclopropyl-1-deoxy-1-[6-[[2-[1-(2,5-dimethylbenzyl)-5-methoxyindol-3-yl]ethyl]amino]-9H-purin-9-yl]] | ~60 mg/kg | – | – |
| 56% | 5% | 60% | 7% | Cc1ccc(C)c(Cn2c(C)c(CCNc3ncnc4c3ncn4[C@@H]3O[C@H](C(=O)NC4CC4)[C@@H](O)[C@H]3O)c3ccccc32)c1 [Example 87, β-D-Ribofuranuronamido-N-cyclopropyl-1-deoxy-1-[6-[[2-[1-(2,5-dimethylbenzyl)-2-methylindol-3-yl]ethyl]amino]-9H-purin-9-yl]] | 1.2 mg/kg | – | – |

Second part, the compound before the results:

| Structure (SMILES) | inhibition at 10 µM [1] | inhibition at 0.1 µM [1] | inhibition at 10 µM [3] | inhibition at 0.1 µM [3] | ED50 [2] | platelet aggregation inhibiting activity [4] | antilipolytic activity [5] |
| --- | --- | --- | --- | --- | --- | --- | --- |
| Cc1ccc(C)c(Cn2cc(CCNc3ncnc4c3ncn4[C@@H]3O[C@H](C(=O)NC4CC4)[C@@H](O)[C@H]3O)c3cc(C)ccc32)c1 [Example 85, β-D-Ribofuranuronamido-N-cyclopropyl-1-deoxy-1-[6-[[2-[1-(2,5-dimethylbenzyl)-5-methylindol-3-yl]ethyl]amino]-9H-purin-9-yl]] | 100% | 50% | 71% | 3% | 0.9 mg/kg | – | – |
| Cc1ccc(C)c(Cn2cc(CC(C)Nc3ncnc4c3ncn4[C@@H]3O[C@H](C(=O)NC4CC4)[C@@H](O)[C@H]3O)c3ccccc32)c1 (stereo partly drawn) [Example 92, β-D-Ribofuranuronamido-N-cyclopropyl-1-deoxy-1-[6-[[1-[1-(2,5-dimethylbenzyl)indol-3-yl]propan-2-yl]amino]-9H-purin-9-yl]] | 96% | 21% | 84% | 9% | 3.6 mg/kg | – | – |
| CC(Cc1cn(C2CCCC2)c2ccccc12)Nc1ncnc2c1ncn2[C@@H]1O[C@H](C(=O)NC2CC2)[C@@H](O)[C@H]1O (stereo partly drawn) [Example 93, β-D-Ribofuranuronamido-N-cyclopropyl-1-deoxy-1-[6-[[1-[1-cyclopentylindol-3-yl]-propan-2-yl]amino]-9H-purin-9-yl]] | 96% | 45% | 85% | 22% | 2 mg/kg | – | – |
| OC[C@H]1O[C@@H](n2cnc3c(NCCc4c[nH]c5ccccc45)ncnc32)[C@H](O)[C@@H]1O [derivative A, N-6-[2-(indol-3-yl)ethyl]adenosine] | – | – | – | – | – | platelet aggregation inhibiting activity | – |
| COc1ccc2[nH]cc(CCNc3ncnc4c3ncn4[C@@H]3O[C@H](CO)[C@@H](O)[C@H]3O)c2c1 [derivative B] | – | – | – | – | – | – | antilipolytic activity |

— patent US5480983A, “Adenosine derivatives, preparation methods and pharmaceutical compositions containing them” (Laboratoires UPSA, priority 1992, dated 1996)
